# US4431742A, “Radioreceptor assay for benzodiazepines in saliva” (The United States of America as represented by the …, priority 1981, dated 1984)
# Tested on: diazepam receptor (fresh rat frontal cortex)
# Test: radioreceptor assay: inhibition of ^3 H-diazepam binding (selectivity, drugs incubated with saliva)
# Settings: 10^-5 M, ^3 H-diazepam 0.50 nM
row,Compound,inhibition of ^3 H-diazepam binding compared with saliva itself
1,CN(C)CCCN1c2ccccc2Sc2ccc(Cl)cc21 [chlorpromazine],failed to inhibit ^3 H-diazepam binding more than saliva itself
2,C#CCN(C)Cc1ccccc1 [pargyline],failed to inhibit ^3 H-diazepam binding more than saliva itself
3,CNCCCN1c2ccccc2CCc2ccccc21 [desmethylimipramine],failed to inhibit ^3 H-diazepam binding more than saliva itself
4,O=c1[nH]c2ccccc2n1C1CCN(CCCC(c2ccc(F)cc2)c2ccc(F)cc2)CC1 [pimozide],failed to inhibit ^3 H-diazepam binding more than saliva itself
5,C=CCN1CC[C@]23CCCC[C@H]2[C@H]1Cc1ccc(O)cc13 [levallorphan],failed to inhibit ^3 H-diazepam binding more than saliva itself

# Tested on: benzodiazepine receptor (fresh rat frontal cortex)
# Test: recovery of benzodiazepines pre-incubated with saliva, measured by benzodiazepine radioreceptor assay
# Assay type: binding
# Settings: 100 nM diazepam pre-incubated with control saliva
row,Compound,maximum percentage lowering of binding vs drug added directly with no saliva present
1,CN1C(=O)CN=C(c2ccccc2)c2cc(Cl)ccc21 [diazepam],equivalent
